Source: patent publication US8494269B2, “Method and system for screening of a to-be-analyzed candidate as a skin-whitening agent” (National Sun Yat-Sen University, priority 2009, dated 2013)

What was measured:
zebrafish larvae [1] = assay: Zebrafish larvae skin-whitening screen, number of valid pixels by Image Scion; assay type: in vivo, zebrafish (Danio Rerio); conditions: for mean of the number of "valid pixels" versus concentration of the administered candidate: FIGS. 11, 12 and 13, 48 h exposure, Image Scion; for concentration giving statistically significant reduction of "valid pixels" in the images of the zebrafish vs control group: embryos exposed 48 h in Hank's buffer/DMSO, p<0.05, ANOVA followed by Duncan's method, Image Scion index 150-254; for conclusion of the screening as skin-whitening agent: second feature parameter smaller than the first with p<0.05
Procedure: The preparation of the zebrafish embryos was similar to, but with small modifications from, that disclosed in M. Westerfield (2007), The Zebrafish Book: A Guide for the Laboratory Use of Zebrafish (Danio Rerio), 5th edit. University of Oregon Press, Eugene, Oreg. First, one female fish and two male fish were put in a breeding tank having an acrylic grid under a water temperature of 28.5 degrees Celsius. Then, the breeding tank was made to undergo a first light-dark cycle of 14 hours of light and 10 hours of darkness. Subsequently, during the second light-dark cycle, the female fish and the male fish would respectively produce eggs and sperms for fertilization so as to obtain fertilized eggs. These fertilized eggs are referred to as fertilized eggs from “the same parental generation”. Next, after an hour, the fertilized eggs were removed from the breeding tank with a dropper, and were disposed in a Petri dish containing the Hank's buffer prepared according to the above-disclosed formula. Later, the Petri dish was disposed in an incubator (RI-80, FIRSTEK, Taiwan) under a controlled temperature of 28.5 degrees Celsius, and a controlled light-dark cycle of 14 hours of light and 10 hours of darkness for a 9-hour breeding process to allow development of the fertilized eggs into embryos. Subsequently, a Leica Z16 APO stereomicroscope (Leica, Heerbrugg, Switzerland) was used for the observation of the development of various embryos. Based on the observations, only well-developed embryos were kept for use in the experiments that followed.
First, arbutin (Sigma, Cat. No. A4256), N-phenylthiourea (Sigma, Cat. No. P7629) and kojic acid (Sigma, Cat. No. K3125) were respectively dissolved in a 2% dimethyl sulfoxide (DMSO) solution prepared from Hank's buffer to result in arbutin solutions with concentrations of 0.1 mM, 0.2 mM, 1 mM, 2 mM, 10 mM and 20 mM, N-phenylthiourea solutions with concentrations of 0.002 mM, 0.02 mM, 0.2 mM, 0.4 mM, 1 mM and 2 mM, and kojic acid solutions with concentrations of 0.2 mM, 1 mM, 2 mM, 20 mM, 40 mM and 100 mM, respectively. Next, each well of a 96-well plate is provided with 100 μL of Hank's buffer. Subsequently, in accordance with the operational conditions set forth below in Table 4, the zebrafish prepared in the way previously described under subsection 2 of section A (Materials used during experimentation) were added respectively to the wells, to which 100 μL of the to-be-analyzed candidates, i.e., arbutin, N-phenylthiourea and kojic acid solutions of various concentrations, were added so as to result in the final concentrations as shown in Table 4. The 96-well plate was then disposed in an incubator under a controlled temperature of 28.5 degrees Celsius, and a controlled light-dark cycle of 14 hours of light and 10 hours of darkness for a 48-hour breeding period to allow the embryos to develop into zebrafish larvae. It should be noted herein that the above procedure was for preparation of a plurality of the “second groups of zebrafish” (i.e., test groups (A2˜A7, N2˜N7, K2˜K7)), while each of the “first groups of zebrafish” (each for a kind of the to-be-tested candidate) were prepared using the same breeding process without the administration of the to-be-analyzed candidates so as to form control groups (A1, N1, K1).
A tricaine methanesulfonate solution (MS-222) with a concentration of 168 ppm was used to anesthetize the zebrafish larvae prepared in Procedure A. Next, a depression slide (Micro Scientific Laboratories, Inc., U.S.A., Cat. No. MM-104SC) containing 1% methyl cellulose (Sigma, Cat. No. M0512) was used to mount the zebrafish. Subsequently, Leica Z16 APO stereomicroscope was used to acquire images of the zebrafish with a 25× magnification rate and a 3.372 ms exposure time.
Image Scion was used to determine the mean of the number of “valid pixels” (i.e., pixels whose grayscale levels fall within a predefined range) in the images corresponding to the zebrafish of the same group. […]

zebrafish larvae [2] = assay: Zebrafish larvae skin-whitening screen, number of valid pixels by ImageJ version 1.40 g; assay type: in vivo, zebrafish (Danio Rerio); conditions: groups A1-A7, FIG. 14 vs FIG. 11; ImageJ threshold 0-85
Procedure: • (2) ImageJ version 1.40 g (ImageJ, National Institute of Health, Bethesda, Md., U.S.A.) with operation parameters set in Table 3 below for defining the predefined range for a pixel to be considered a “valid pixel”.
First, arbutin (Sigma, Cat. No. A4256), N-phenylthiourea (Sigma, Cat. No. P7629) and kojic acid (Sigma, Cat. No. K3125) were respectively dissolved in a 2% dimethyl sulfoxide (DMSO) solution prepared from Hank's buffer to result in arbutin solutions with concentrations of 0.1 mM, 0.2 mM, 1 mM, 2 mM, 10 mM and 20 mM, N-phenylthiourea solutions with concentrations of 0.002 mM, 0.02 mM, 0.2 mM, 0.4 mM, 1 mM and 2 mM, and kojic acid solutions with concentrations of 0.2 mM, 1 mM, 2 mM, 20 mM, 40 mM and 100 mM, respectively. Next, each well of a 96-well plate is provided with 100 μL of Hank's buffer. Subsequently, in accordance with the operational conditions set forth below in Table 4, the zebrafish prepared in the way previously described under subsection 2 of section A (Materials used during experimentation) were added respectively to the wells, to which 100 μL of the to-be-analyzed candidates, i.e., arbutin, N-phenylthiourea and kojic acid solutions of various concentrations, were added so as to result in the final concentrations as shown in Table 4. […]

Row | SMILES | mean of the number of "valid pixels" versus concentration of the administered candidate (zebrafish larvae [1]) | concentration giving statistically significant reduction of "valid pixels" in the images of the zebrafish vs control group (zebrafish larvae [1]) | conclusion of the screening as skin-whitening agent (zebrafish larvae [1]) | comparison of results obtained using ImageJ version 1.40 g with those using Image Scion (zebrafish larvae [2])
1 | NC(=S)Nc1ccccc1 [N-phenylthiourea] | decreases with the concentration | at least 0.01 mM | suitable as skin-whitening agents | –
2 | OC[C@H]1O[C@@H](Oc2ccc(O)cc2)[C@H](O)[C@@H](O)[C@@H]1O [arbutin] | decreases with the concentration | at least 0.05 mM | suitable as skin-whitening agents | no significant difference
3 | O=c1cc(CO)occ1O [kojic acid] | decreases with the concentration | at least 10 mM | suitable as skin-whitening agents | –
